Structures can show the parent of a compound that is named as a salt.
System: Plasmodium falciparum NF54 gametocytes
Conditions: 384, incubation time: 72 h
Experimental: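 Known antimalarials and MMV control compounds in dose response against each stage (I–V) […] The fitted EC50 is reported as IC50 in µM; '>' marks the top dose reached without a curve.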

[1] = gametocyte stage: Stage I Dose Response IC50 (µM), assay protocol: TSSA
[2] = gametocyte stage: Stage II Dose Response IC50 (µM), assay protocol: TSSA
[3] = gametocyte stage: Stage III Dose Response IC50 (µM), assay protocol: TSSA
[4] = gametocyte stage: Stage IV Dose Response IC50 (µM), assay protocol: TSSA
[5] = gametocyte stage: Stage V Dose Response IC50 (µM), assay protocol: TSSA
[6] = gametocyte stage: Stage I Dose Response IC50 (µM), assay protocol: SaLSSA
[7] = gametocyte stage: Stage II Dose Response IC50 (µM), assay protocol: SaLSSA
[8] = gametocyte stage: Stage III Dose Response IC50 (µM), assay protocol: SaLSSA
[9] = gametocyte stage: Stage IV Dose Response IC50 (µM), assay protocol: SaLSSA
[10] = gametocyte stage: Stage V Dose Response IC50 (µM), assay protocol: SaLSSA

Row | Compound | IC50 of gametocyte viability [1] | IC50 of gametocyte viability [2] | IC50 of gametocyte viability [3] | IC50 of gametocyte viability [4] | IC50 of gametocyte viability [5] | IC50 of gametocyte viability [6] | IC50 of gametocyte viability [7] | IC50 of gametocyte viability [8] | IC50 of gametocyte viability [9] | IC50 of gametocyte viability [10]
1 | CC(C)(N)CNC(=O)CC1CCC2(CC1)OOC1(O2)C2CC3CC(C2)CC1C3 (stereo not given) | 0.00821 µM | 0.00599 µM | 0.00837 µM | 0.00742 µM | > 12.5 µM | – | – | – | – | –
2 | CC(C)(N)CNC(=O)C[C@H]1CC[C@]2(CC1)OOC1(O2)C2CC3CC(C2)CC1C3 (stereo not given in full) | – | – | – | – | – | 0.00769 µM | 0.00395 µM | 0.00158 µM | 0.00787 µM | > 12.5 µM
3 | OC(c1cc(C(F)(F)F)nc2c(C(F)(F)F)cccc12)C1CCCCN1 (racemic) [Mefloquine (Racemic)] | 0.0569 µM | 0.117 µM | 0.127 µM | 2.08 µM | 5.77 µM | – | – | – | – | –
4 | O[C@@H](c1cc(C(F)(F)F)nc2c(C(F)(F)F)cccc12)[C@H]1CCCCN1 (racemic) [Mefloquine (Racemic)] | – | – | – | – | – | 0.0441 µM | 0.052 µM | 0.143 µM | 0.818 µM | 0.132 µM
5 | CCN(CC)CCCNc1ccnc2cc(Cl)ccc12 [AQ-13] | – | – | – | – | – | 0.0426 µM | 0.0335 µM | 0.484 µM | 6.47 µM | 6.05 µM
6 | CCN(CC)Cc1cc(Nc2ccnc3cc(Cl)ccc23)ccc1O [Amodiaquine] | 0.0134 µM | 0.0088 µM | 0.107 µM | 5.4 µM | > 9.39 µM | 0.0118 µM | 0.00579 µM | 0.0961 µM | 2.46 µM | 1.78 µM
7 | CO[C@H]1O[C@@H]2O[C@@]3(C)CC[C@H]4[C@H](C)CC[C@@H]([C@H]1C)[C@@]24OO3 [Artemether] | 0.0183 µM | 0.0125 µM | 0.0175 µM | 0.0184 µM | > 12.5 µM | 0.0159 µM | 0.00459 µM | 0.00617 µM | 0.019 µM | > 12.5 µM
8 | C[C@@H]1CC[C@H]2[C@@H](C)C(=O)O[C@@H]3O[C@@]4(C)CC[C@@H]1[C@]32OO4 [Artemisinin] [listing 1 of 2 here] | – | – | – | – | – | 0.0243 µM | 0.0204 µM | 0.0118 µM | 0.0373 µM | > 12.5 µM
9 | C[C@@H]1CC[C@H]2[C@@H](C)C(=O)O[C@@H]3O[C@@]4(C)CC[C@@H]1[C@]32OO4 [Artemisinin] [listing 2 of 2 here] | 0.027 µM | 0.0188 µM | 0.0218 µM | 0.0322 µM | > 12.5 µM | – | – | – | – | –
10 | C[C@H]1[C@H](N2CCS(=O)(=O)CC2)O[C@@H]2O[C@@]3(C)CC[C@H]4[C@H](C)CC[C@@H]1[C@@]24OO3 [Artemisone] [listing 1 of 2 here] | – | – | – | – | – | 0.00277 µM | 0.00176 µM | 0.00339 µM | 0.00421 µM | > 12.5 µM
11 | C[C@H]1[C@H](N2CCS(=O)(=O)CC2)O[C@@H]2O[C@@]3(C)CC[C@H]4[C@H](C)CC[C@@H]1[C@@]24OO3 [Artemisone] [listing 2 of 2 here] | 0.00264 µM | 0.00244 µM | 0.00605 µM | 0.00548 µM | > 7.85 µM | – | – | – | – | –
12 | C[C@H]1[C@@H](O)O[C@@H]2O[C@@]3(C)CC[C@H]4[C@H](C)CC[C@@H]1[C@@]24OO3 [Artenimol (Dihydro artemisinin)] [listing 1 of 2 here] | – | – | – | – | – | 0.00579 µM | 0.0027 µM | 0.00674 µM | 0.0207 µM | > 12.5 µM
13 | C[C@H]1[C@@H](O)O[C@@H]2O[C@@]3(C)CC[C@H]4[C@H](C)CC[C@@H]1[C@@]24OO3 [Artenimol (Dihydro artemisinin)] [listing 2 of 2 here] | 0.00685 µM | 0.00766 µM | 0.0152 µM | 0.0403 µM | > 12.5 µM | – | – | – | – | –
14 | C[C@H]1[C@H](OC(=O)CCC(=O)O)O[C@@H]2O[C@@]3(C)CC[C@H]4[C@H](C)CC[C@@H]1[C@@]24OO3 [Artesunate] [listing 1 of 2 here] | – | – | – | – | – | 0.00773 µM | 0.00351 µM | 0.0126 µM | 0.0491 µM | > 10.6 µM
15 | C[C@H]1[C@H](OC(=O)CCC(=O)O)O[C@@H]2O[C@@]3(C)CC[C@H]4[C@H](C)CC[C@@H]1[C@@]24OO3 [Artesunate] [listing 2 of 2 here] | 0.00565 µM | 0.00577 µM | 0.0172 µM | 0.02 µM | > 12.5 µM | – | – | – | – | –
16 | O=C1C(O)=C([C@H]2CC[C@H](c3ccc(Cl)cc3)CC2)C(=O)c2ccccc21 [Atovaquone] [listing 1 of 2 here] | > 12.5 µM | > 12.5 µM | > 12.5 µM | > 12.5 µM | > 12.5 µM | – | – | – | – | –
17 | O=C1C(O)=C([C@H]2CC[C@H](c3ccc(Cl)cc3)CC2)C(=O)c2ccccc21 [Atovaquone] [listing 2 of 2 here] | – | – | – | – | – | > 12.5 µM | > 12.5 µM | > 12.5 µM | 2.37 µM | > 12.5 µM
18 | CC[C@H]1OC(=O)[C@H](C)[C@@H](O[C@H]2C[C@@](C)(OC)[C@@H](O)[C@H](C)O2)[C@H](C)[C@@H](O[C@@H]2O[C@H](C)C[C@H](N(C)C)[C@H]2O)[C@](C)(O)C[C@@H](C)CN(C)[C@H](C)[C@@H](O)[C@]1(C)O [Azithromycin] | > 12.5 µM | > 12.5 µM | > 12.5 µM | > 12.5 µM | > 12.5 µM | – | – | – | – | –
19 | CC[C@H]1OC(=O)[C@H](C)[C@H](O[C@H]2C[C@@](C)(OC)[C@@H](O)[C@H](C)O2)[C@H](C)[C@@H](O[C@@H]2O[C@H](C)C[C@H](N(C)C)[C@H]2O)[C@](C)(O)C[C@@H](C)CN(C)[C@H](C)[C@H](O)[C@]1(C)O [Azithromycin] | – | – | – | – | – | > 12.5 µM | > 12.5 µM | > 12.2 µM | > 12.5 µM | > 12.5 µM
20 | CCN(CC)CCCC(C)Nc1ccnc2cc(Cl)ccc12 (stereo not given) [Chloroquine] | 0.084 µM | 0.0806 µM | > 6.25 µM | > 6.25 µM | > 6.25 µM | 0.0956 µM | 0.0981 µM | > 6.25 µM | > 6.25 µM | > 6.25 µM
21 | CC(C)NC(=N)NC(=N)Nc1ccc(Cl)c(Cl)c1 [Chlorproguanil hydrochloride/1.11] | > 12.5 µM | > 12.5 µM | 8.37 µM | 7.57 µM | > 11 µM | 9.35 µM | 7.79 µM | 7.87 µM | 5.21 µM | 4.8 µM
22 | CC1(C)N=C(N)N=C(N)N1c1ccc(Cl)cc1 [Cycloguanil] | – | – | – | – | – | > 12.5 µM | > 12.5 µM | > 12.5 µM | > 12.5 µM | > 12.5 µM

— the supplement of paper PMC4723716
